From patent US4578397A, “Indeno(1,2-b)pyrrole derivatives” (Yoshitomi Pharmaceutical Industries, Ltd., priority 1982, dated 1986)

Tests used:
[1] = administered peripherally; cited from earlier work
[2] = tested on: picrotoxin-induced lethality; assay: Anti-picrotoxin effect (anti-lethal), oral; format: in vivo, male dd-mice; settings: Mus musculus, 0.5 h, read-out: Anti-picrotoxin-lethal effect, ED50
Protocol: 1. Anti-picrotoxin Effect
Groups of 7-14 male dd-mice were used. Picrotoxin (5 mg/kg) was administered subcutaneously 60 minutes after the oral administration of test compound, and the 50% anti-lethal dose (ED50) was calculated from the servival rate within 30 minutes.

[3] = tested on: bicuculline-induced tonic convulsion; assay: Anti-bicuculline effect (anti-tonic convulsion), oral; format: in vivo; settings: Mus musculus, 5 min; bicuculline 0.6 mg/kg i.v. 60 min after oral test compound; protection of 50% against tonic convulsion within 5 min; male dd-mice; read-out: Anti-bicuculline-convulsive effect, ED50
Protocol: 2. Anti-bicuculline Effect
Groups of 4-14 male dd-mice were used. Bicuculline (0.6 mg/kg) was administered intravenously 60 minutes after the oral administration of test compound, and the ED50, the dose required to protect 50% of the animals against tonic convulsion within 5 minutes was determined.

In the case of `NCCCC(=O)O` [GABA, gamma-aminobutyric acid], the “transmission through the blood-brain barrier” value [1] is given as “hard to transmit through the blood-brain barrier”.

Work on `CN1C(=O)CC2Cc3c(Cl)cccc3C21` (centres unmarked) [B, 5-chloro-1-methyl-1,2,3,3a,4,8b-hexahydro-indeno[1,2-a]pyrrol-2-one] yielded an ED50 [2] of 36 mg/kg and an ED50 [3] of 68 mg/kg.

With `O=C1CC2Cc3ccccc3C2N1` (centres unmarked) [Compound E, 1,2,3,3a,4,8bHexahydro-indeno[1,2b]pyrrol2-one, reference compound] the ED50 [2] was over 100 mg/kg and the ED50 [3] was over 100 mg/kg.

For `O=C1CC2Cc3c(Cl)cccc3C2N1` (centres unmarked) [A, 5-chloro-1,2,3,3a,4,8b-hexahydro-indeno[1,2-b]pyrrol-2-one], the ED50 [2] was 18 mg/kg and the ED50 [3] was 75 mg/kg.

`Fc1ccc2c(c1)CC1CC(=S)NC21` (centres unmarked) [C, 6-Fluoro-1,2,3,3a,4,8b-hexahydro-indeno[1,2-b]pyrrol-2-thione] gave an ED50 [2] of 45 mg/kg and an ED50 [3] of 70 mg/kg.

For `O=C1CC2Cc3ccc(F)cc3C2N1` (centres unmarked) [D, 7-Fluoro-1,2,3,3a,4,8b-hexahydro-indeno[1,2-b]pyrrol-2-one], the ED50 [2] was 48 mg/kg and the ED50 [3] was 56 mg/kg.
